Values belong to the compound of their own block, whether it stands above or below them.
Columns and labels:
[1] = tested on: human glioblastoma (GBM43); experiment: Effect of LPS-PMNPs on delivery of irinotecan, intracranial glioblastoma; type: in vivo, mouse; settings: LPS-PMNP plus magnetic field vs groups 1 and 2, 24 hours after dose on day 18
Method: In this study, human glioblastoma (GBM43) were maintained as subcutaneous xenografts. The tumor cells from subcutaneous xenografts were transfer to the intracranial compartment. Cells were suspended in DMEM media at 1×10^5 cells/μL for intracranial injection. 3 μL of tumor cell suspension (3×10^5 cells total) were injected into the right caudate putamen of 6 week-old female athymic mice (nu/nu). Prior to injection, the mice were anesthetized IP (intraperitoneal injection) (ketamine/xylazine). 0.4 mg of irinotecan was administrated via tail vein to each mouse on day 12 after implantation of tumor cells, and repeated at days 18, 24, and 30. LPS-PMNPs were administered via tail vein 4 hours prior to administration of irinotecan. All treatment groups received treatment with irinotecan. The treatment groups were: 1) control (without LPS-PMNP treatment); 2) LPS-PMNP (LPS-PMNP treatment without magnetic field); and 3) LPS-PMNP with magnetic field (strong localized magnetic field applied to tumor area). For group 3, the strong localized magnetic field was applied to the tumor cranial area using a conical magnet. […]
The irinotecan content in the brain and the tumor from a mouse in each group was also determined. […] Irinotecan levels in the tumor tissues were measured from homogenized tissues in acidic methanol solution, and measured using an HPLC (eluted peaks, 380/540 nm). […]

[2] = tested on: human breast cancer xenographs; experiment: MRI of magnetic field induced localization of gadolinium oxide based PMNPs; type: in vivo, mouse
Method: FIGS. 3(A-D). […] By applying a magnet field for 30 minutes at hind end (blue arrows), the enhanced image of hind-end tumor is observed (3B). The enhanced image of the tumor persists for at least several hours. […] The PMNPs are concentrated at site of a lower abdominal mammary tumor (FIG. 3C) using an external magnetic field placed over the tumor for 30 minutes. […] Imaging was performed over several hours without taking the mouse out of MRI machine thereby maintaining all of the imaging parameters.
FIGS. 4(A-B). Compares the MRI contrast data between […] (gadopentetate dimeglumine) and gadolinium oxide-based PMNPs.
In FIG. 3 are presented results on magnetic immobilization of gadolinium-based PMNPs in a mouse with numerous human breast cancer xenographs. There is no image enhancement for any of the multiple tumors located in different parts of the mouse including one at hind end (green-arrow at bottom of the picture marked tumor). The mouse was then removed and then subjected to thirty minutes of having a magnetic field placed over the tumor demarked by the green arrow. […] The intensity of MRI signal is very similar at both tumor and bladder. This is very different than observed in case of […] where there is a transient image of the bladder and no site specific localization of the contrast agent in any one of the tumors. […]

[3] = tested on: U87 human glioblastoma cells; experiment: Cell viability assay (Presto Blue); type: cell-based; settings: 48 h incubation
Method: FIG. 22 Cytotoxicity of naked curcumin, curcumin conjugated PMNPs and Sol-Gel Nps and blanks (without curcumin) performed on U87 human glioblastoma cells after 48 hours of incubation. Note that 1 μM equivalent curcumin concentration corresponds to 16.7 μg/mL of nanoparticles. […] The data represents the mean±SE, n=3 to 18.
Cells were plated in 24-well trays and allowed to become confluent then incubated with naked curcumin or different curcumin NP concentrations for 48 h. Cell viability was quantified using Presto Blue (Invitrogen) an assay that contains a cell permeable resazurin-based solution that is modified by the reducing environment of the viable cell becoming highly fluorescent. Using a plate reader, cell viability was quantified after 0.5-1 hours of incubation with Presto Blue. All measurements were always accompanied by control wells and by calibration wells to account for background fluorescence using the same culture media and the same NP concentrations without the cells.
U-87 used as an vitro model of human glioblastoma were incubated with either Curcumin or Curcumin loaded NPs.

[4] = tested on: TNFα, TGBβ, MCP-1, IL-1α, IL-1β, IL-6, IL-10, and IL-12; experiment: Time-dependent cytokine levels (systemic inflammation); type: in vivo, mice
Method: This study monitored the time-dependent changes in various cytokine levels (TNFα, TGBβ, MCP-1, IL-1α, IL-1β, IL-6, IL-10, and IL-12) for LPS-PMNPs (10 mg/kg) in mice with and without magnetic field (i.e., treatment with or without a localized magnet) as compared with free LPS introduced at 10 mg/kg and 2 mg/kg—a lower concentration than for the LPS carried on the PMNPs. The cytokine levels for each group were measured over a 24-hour period, with measurements at baseline, 1 hour, 6 hours, and 24 hours. The four comparison groups were: A) LPS-PMNP (10 mg/kg) without magnetic field; B) LPS-PMNP (10 mg/kg) with magnetic field; C) free LPS (2 mg/kg); and D) free LPS (10 mg/kg).

[5] = tested on: human glioblastoma (GBM43); experiment: LPS-PMNPs and oral temozolomide, survival and drug delivery; type: in vivo, mouse; settings: oral 20 mg/kg after LPS-PMNP with magnetic field; relative to groups 1-3
Method: In this study, human glioblastoma (GBM43) were again maintained as subcutaneous xenografts. The tumor cells from subcutaneous xenografts were transfer to the intracranial compartment. Cells were suspended in DMEM media at 1×10^5 cells/μL for intracranial injection. 3 μL of tumor cell suspension (3×10^5 cells total) were injected into the right caudate putamen of 6 week-old female athymic mice (nu/nu). Prior to injection, the mice were anesthetized IP (intraperitoneal injection) (ketamine/xylazine). PMNPs (10 mg/kg) with and without LPS were administered via tail vein. 6 hours after administration of PMNPs, 20 mg/kg temozolomide (TMZ) was administrated as oral suspension in a vehicle containing 2.5 mg/ml Povidone K30, 0.015% citric acid, 50% Ora-Plus, 50% Ora-Sweet SF (Paddock Labs Minneapolis, Minn.) on days 12, 18, 24, and 30. The treatment groups were: 1) control (no TMZ); 2) TMZ alone; 3) LPS-PMNP plus TMZ (without magnetic field); and 4) LPS-PMNP plus TMZ with magnetic field (strong localized magnetic field applied to tumor area). The mice were euthanized as the symptoms from the increasing tumor burden prevented access to food/water.

[6] = Histopathological analysis of multiple tissues (toxicity); type: in vivo, mouse; settings: 1 mg/kg
Method: FIGS. 11(A-B). Systemic effect of the treatment. (A) Representative H&E staining of tissue sections from ADM-PMNP injected mice (1 mg/kg BW)(A). (B) inflammation and hyperplasia were found in colon from mice treated with free ADM (B-left) but not in mice injected with the same dose of ADM-PMNP (B-right).

[7] = tested on: xenografted human breast cancer; experiment: ADM-PMNP plus magnetic field on xenografted human breast cancer (bioluminescence); type: in vivo, mouse; settings: comparable amount of free drug
Method: FIG. 8 Anti-tumor effect of IV infused Adriamycin loaded PMNP (ADM-PMNP) plus magnetic field treatment on xenografted human breast cancer. Human breast cancer was s.c. xenografted in a female nude mouse. The mouse was injected with 1 mg/kg ADM-PMNP and the tumor was treated with magnetic field for 30 minutes following each injection The mouse was imaged before and after the treatment, the luminescent signals were quantitatively analyzed for change of tumor size. At the end of the treatment, there was a >80% decrease of luminescent signaling in the tumor. The signal recovered partially 3 days after the treatment was ended.
Signal intensity in treated tumor was similar to that in bladder, a major route of PMNP elimination. Next, to assess drug delivery and anti-tumor efficacy, MoB-1833 mammary xenografted tumor-bearing mice were infused with ADM-coated PMNP (ADM-PMNP). ADM use in chemotherapy is limited due to systemic toxicity and it is therefore an excellent model drug for evaluation of the potentially utility of our PMNP platform. […] This ADM dose is 5-20 times lower than doses of free ADM commonly used for in animal studies and similar to doses used clinically. The 4-day treatment achieved a 9-fold reduction in tumor mass (FIG. 8). Tumor rebound upon drug termination confirmed specificity of the drug effect. […] The necrosis was confirmed histologically (FIG. 9Bd-f). […]

MDA-MB-436 = experiment: Tumor necrosis in MDA-MB-436 xenografts; type: in vivo, mouse; settings: 1.0 mg/kg

irinotecan content in the brain [1]: higher
irinotecan content in the tumor ([1]; HPLC): significantly higher
Compound: CCc1c2c(nc3ccc(OC(=O)N4CCC(N5CCCCC5)CC4)cc13)-c1cc3c(c(=O)n1C2)COC(=O)[C@]3(O)CC [irinotecan]

persistence of MRI contrast ([2]; mouse, in vivo): short lived
distribution of contrast agent (MRI) ([2]; within a short time, no magnetic field): concentrates in the bladder
Compound: CNC[C@H](O)[C@@H](O)[C@H](O)[C@H](O)CO.CNC[C@H](O)[C@@H](O)[C@H](O)[C@H](O)CO.O=C([O-])CN(CCN(CC(=O)[O-])CC(=O)O)CCN(CC(=O)[O-])CC(=O)O.[Gd+3] [gadopentetate dimeglumine]

Compound: COc1cc(/C=C/C(=O)CC(=O)/C=C/c2ccc(O)c(OC)c2)ccc1O [curcumin, Curcumin]
equivalent curcumin concentration able to significantly decrease cell viability by 20% [3]: 5 µM

Compound: lipopolysaccharides [free LPS]
acute inflammation ([4]; 2 mg/kg, compared with LPS-PMNP (10 mg/kg)): substantially greater
inflammation over time ([4]; 10 mg/kg): produced endotoxemia

Compound: Cn1nnc2c(C(N)=O)ncn2c1=O [TMZ, temozolomide]
TMZ content in the tumor [5]: greater TMZ content in the tumor

Compound: COc1cccc2c1C(=O)c1c(O)c3c(c(O)c1C2=O)C[C@@](O)(C(=O)CO)C[C@@H]3O[C@H]1C[C@H](N)[C@H](O)[C@H](C)O1 [Adriamycin, Adriamycin (doxorubicin)]
histopathological findings [6]: colonic inflammation and hyperplasia
anti-tumor effect [7]: relatively ineffective
tumor necrosis (MDA-MB-436): smaller necrotic lesions

Reference: patent publication US20170332910A1, “MODIFIED PARAMAGNETIC NANOPARTICLES FOR TARGETED DELIVERY OF THERAPEUTICS AND METHODS THEREOF” (ALBERT EINSTEIN COLLEGE OF MEDICINE, INC., priority 2014, published 2017)
